Earlier results on ten compounds are cited in paper PMC10033663, “Acute pharmacological profile of 2C-B-Fly-NBOMe in male Wistar rats—pharmacokinetics, effects on behaviour and thermoregulation” (Frontiers in Pharmacology, 2023).

Like-named read-outs stand apart in the source and are kept apart here.

For data set [1] the following is noted: 50 mg/kg s. c., ref Rohanová et al., 2008, cited from earlier work.
Details of data set [2]: method as in ref Adams and Geyer, 1982; Páleníček et al., 2013; Páleníček et al., 2008. Conditions: ref Adams and Geyer, 1982, Páleníček et al., 2013, 2008; cited from earlier work.
The conditions of data set [3]: rat blood serum; 1 mg/kg, peroral administration; ref Baralla et al. (2019); cited from earlier work.
Details of data set [4]: method as in Gatch et al., 2017; Wojtas et al., 2021. Conditions: administered i. p.; ref Gatch et al., 2017; Wojtas et al., 2021; cited from earlier work.
Data set [5] has as its system rats. On the set-up: method as in Nakamura et al., 2018. Conditions: 0.25 intraperitoneally (i. p.), ambient temperature 29°C, ref Nakamura et al., 2018; cited from earlier work.
Data set [6] deals with rats. Also noted: method as in Halberstadt and Geyer, 2017. Conditions: ref Halberstadt and Geyer, 2017; cited from earlier work.
Details of data set [7]: method as in ref Šíchová et al., 2022. Conditions: compared with 2C-B-Fly-NBOMe; ref Šíchová et al., 2022; cited from earlier work.
Details of data set [8]: method as in ref Šíchová et al., 2022. Conditions: ref Šíchová et al., 2022; cited from earlier work.
Details of data set [9]: method as in ref Šíchová et al., 2022. Conditions: 5 mg/kg; individually-housed animals; ref Šíchová et al., 2022; cited from earlier work.
On the set-up of data set [10]: method as in ref Šíchová et al., 2022. Conditions: 5 mg/kg, ref Šíchová et al., 2022, cited from earlier work.
The test system of data set [11] is rats. On the set-up: method as in Miliano et al. (2019). Conditions: ref Miliano et al. (2019), cited from earlier work.
Data set [12] concerns rats. Conditions: 0.5 mg/kg i. p.; female and male rats; ref Miliano et al. (2019); cited from earlier work.
Data set [13] has as its system mice. Also noted: method as in Halberstadt, 2017. Conditions: ref Halberstadt, 2017, cited from earlier work; for locomotion: mice.

Consider `COc1cc(CCN)c(OC)cc1Br` [2C-B, 4-Bromo-2,5-dimethoxyphenethylamine], for which the “time for which presence was detectable” value in data set [1] (all collected tissues) was “up to 5 h”. Further, the “time of peak concentration” value in data set [1] (blood serum) is on record as not above 30 min; in data set [1] (brain, liver, and lung tissue), not above 60 min. Besides, the “biphasic effect (low and high doses, temporal onsets)” value in [2] is on record as “biphasic effect”.
`NCCc1c2c(cc3c1OCC3)OCC2` [2C-FLY, 2-(2,3,6,7-tetrahydrofuro [2,3-f][1]benzofuran-4-yl)ethanamine]: the “time of peak concentration” value in data set [3] was 60 min.
Consider `COc1cc(CCNCc2ccccc2OC)c(OC)cc1Br` [25B-NBOMe], for which the locomotor activity result in [4] was “dose-dependent decrease in locomotor activity”. Moreover, the body temperature entry in data set [5] was “hyperthermia, but only in higher ambient temperature”.
Turning to `COc1cc(CCNCc2ccccc2OC)c(OC)cc1Cl` [25C-NBOMe], in data set [4], the locomotor activity result is reported as “dose-dependent decrease in locomotor activity”.
On to `COc1cc(CCNCc2ccccc2O)c(OC)cc1C#N` [25CN-NBOH], for which the PPI entry in [6] is “tendencies to disrupt PPI”.
`COc1cc(CCNCc2ccccc2OC)c(OC)cc1C#N` [25CN-NBOMe]: the locomotion entry in data set [7] is listed as “similar, yet less pronounced decrease in locomotion”. Besides, in [8], the PPI result is on record as “affected PPI only in the highest dose of 5 mg/kg in the 15 min onset”. For the same compound, the body temperature entry in data set [9] was “significant hypothermic effect”. The half-life in [10] (blood serum) was 1.88 h; in [10] (brain tissue), 2.28 h.
As for `COc1cc(CCNCc2ccccc2OC)c(OC)cc1I` [25I-NBOMe, 2-(4-iodo-2,5-dimethoxyphenyl)-N-[(2-methoxyphenyl)methyl]ethanamine], the locomotor activity entry in data set [4] is listed as “dose-dependent decrease in locomotor activity”. Also, in data set [11] (highest dose (1 mg/kg i. p.)), the ASR result is on record as “significant decrease of ASR”. Also, the PPI entry in data set [11] is listed as “dose-dependent inhibition of PPI”. Moreover, the body temperature entry in [12] is “induced hyperthermia within 35–65 min in female rats, but not in males”. In addition, the locomotion result in [13] (0.1 mg/kg s. c., 60 min temporal onset) was “significant hyperlocomotion”; in data set [13] (3 mg/kg s. c.) it was “hypolocomotion”. For the same compound, the “biphasic effect on locomotion by route” value in [13] (s. c. versus i. p.) is listed as “induced a biphasic effect after s. c. application, but interestingly not after i. p. injection”.
For the compound `CC(N)Cc1c2c(cc3c1OCC3)OCC2` (stereo not drawn) [FLY, 1-(2,3,6,7-tetra-hydrofuro [2,3-f][1]benzofuran-4-yl)propan-2-amine], in [3], the “time of peak concentration” value is on record as 30 min.
`CCN(CC)C(=O)[C@@H]1C=C2c3cccc4[nH]cc(c34)C[C@H]2N(C)C1` [LSD, lysergic acid diethylamide]: the “biphasic effect (low and high doses, temporal onsets)” value in data set [2] is given as “biphasic effect”.
For the compound `COc1cc(CCN)cc(OC)c1OC` [mescaline], the “biphasic effect (low and high doses, temporal onsets)” value in data set [2] was “biphasic effect”.

By half-life is commonly meant the time in which the quantity being followed falls by half.
